The source of these data is patent US20260248731A1, “NON-VIRAL DELIVERY OF SMALL MOLECULE THERAPEUTICS” (BATTELLE MEMORIAL INSTITUTE, priority 2022, published 2026).

Data set [1] has as its system macrophage-differentiated THP-1 cells. The following applies: background statement; cited from earlier work.
The subject of data set [2] is RAW264.7 cells. Description: Cytokine release from RAW264.7 cells, multiplex cytometric bead array. It is filed as cell-based, murine. The following applies: 24 hours after treatment. Here is the method: Talabostat mesylate (MedChemExpress; TLBST) was reconstituted to 10 mg/mL in deionized water and stored frozen. Prior to use, TLBST was thawed, incubated at 37° C. for 20 mins, and sonicated for 10 minutes. TLBST was serially diluted in pH 7.4, 40 mM Tris, 10 mM MgCl2 buffer to 5 mg/mL and 2.5 mg/mL. Free talabostat controls were prepared in triplicate by diluting and serially diluting the 10, 5, and 2.5 mg/mL TLBST stock in pH 7.4, 40 mM Tris-HCl, 10 mM MgCl2 buffer to generate free TLBST at 1.25, 0.625, and 0.3125 mg/mL. […]
RAW264.7 cells were seeded at 100,000 cells per well of a 96-well plate. […] Twenty-four hours following stimulation, cell culture supernatants were harvested and stored frozen until quantification of lactate dehydrogenase (LDH) by colorimetric enzymatic activity assay, and interleukin 1β (IL-1β), interleukin 18 (IL-18), and interferon β (IFNβ) by multiplex cytometric bead array assay. Percentage LDH release was calculated relative to the maximum LDH released from a lysed cells control. […] MTT signal derived from stimulated cells was quantified by colorimetric enzymatic activity assay. Percentage viability was calculated relative to the MTT signal measured in an untreated cells control. […]

For data set [3], the system named is murine cancer models. As to conditions: systemic administration; cited from earlier work.
For data set [4], the system named is macrophage-differentiated THP-1 cells. As to conditions: background statement; cited from earlier work. This is another data set of the same source.

Turning to Talabostat mesylate [Free TLBST], in data set [1], the cytotoxicity entry is “exhibit both cytotoxicity and IL-1β release”. In data set [2], the “IFNβ in the supernatant” value is listed as “but not free TLBST is associated with IFNβ secretion”. Also, the “protection in murine cancer models” value in data set [3] was “potent T and NK cell-dependent protection”. Moreover, in data set [4], the IL-1β release result was “exhibit both cytotoxicity and IL-1β release”.
